Entries after “also recorded” stand apart in the source; their conditions may differ.
What was measured:
[1] = test system: Crocker Sarcoma (Sa-180); assay: Inhibition of growth of Crocker Sarcoma (Sa-180) in mice; assay type: in vivo; details: 33 determinations in ten series, different doses
Method: The inhibition of growth of Crocker Sarcoma (Sa-180) in mice.
For these experiments mice, three months old and about 25 g in weight were used. Each of them was inoculated with a section of sarcoma (Sa-180 and then they were divided in groups: one of control -- 10 mice, and two to four groups of the "being under treatment"-mice (7 mice each).
The compound investigated in corresponding doses were administered intraperitoneally in appropriate doses, prior to which a maximum tolerance dose was determined.
As a criterion for evaluation of the anti-neoplastic activity of the compounds investigated, the percent difference of the mean weights of tumours isolated from control mice, and the "treated" mice was used, taking into consideration the toxic effects. As active compounds were those which have inhibited, by at least 40%, the growth of the tumours, in at least two tests without any dying of the animals (less than 2 mice), or any mean losses of the weight greater than 4 g.
The investigations in vivo of several compounds were carried out several times, e.g., for the preparation labeled code number C-829, that is for 1-nitro-9-(2-dimethylamino-1-methylethylamino)-acridine dihydrochloride. […] In doses of 0.05 to 0.2 mg/kg the percent of inhibition was 17 to 73%, correspondingly.

[2] = Acute toxicity i.v. in mice (LD50, MTD); assay type: in vivo; details: mouse, in vivo, iv, on average
[3] = test system: mice; assay: Acute toxicity i.v. in mice (LD50, MTD); assay type: in vivo
[4] = Acute toxicity i.v. in rats (LD50, MTD); assay type: in vivo; details: rat, in vivo, iv, on average
[5] = test system: rats; assay: Acute toxicity i.v. in rats (LD50, MTD); assay type: in vivo
[6] = Acute toxicity by oral administration (LD50, MTD); assay type: in vivo; details: in vivo, mice and rats
Method: (§1) On the other hand, similar doses as related to oral administration are about 100 mg/kg.
(§2) The MTD-values by oral administration are even lower i.e., by 53-66% than the sharp lethal dose.

[7] = test system: mice and rats; assay: Acute toxicity by oral administration (LD50, MTD); assay type: in vivo
Method: as §1, §2

[8] = Acute toxicity, signs and comparison with other acridine derivatives; assay type: in vivo
Method: as §1, §2

[9] = test system: circulatory system; assay: Circulatory and electrocardiographic effects; assay type: in vivo
[10] = test system: respiratory system; assay: Influence on the respiratory system; assay type: in vivo
Source text: The influence exerted by the preparation on the respiratory system is of two-phases.

[11] = test system: circulatory system; assay: Circulatory action in atropinized animals; assay type: in vivo; details: atropinized rabbits
[12] = test system: smooth muscle in the small intestine and the urinary bladder; assay: Action on smooth muscle of small intestine and urinary bladder; assay type: in vivo; details: 10 mg/kg, rabbit
[13] = test system: muscular coat of the small intestine; assay: In vitro action on muscular coat of small intestine, guinea-pig; details: 10^-5 to 5×10^-5, guinea-pig
[14] = test system: muscular coat of the small intestine; assay: In vitro action on muscular coat of small intestine, rat; details: 10^-5 to 5×10^-5, rat
[15] = test system: central nervous system; assay type: in vivo
Source text: The preparation C-829 exerted an effect on the principal functions of the central nervous system.

[16] = test system: reproductory functions; assay: Influence on reproductory functions; assay type: in vivo
[17] = test system: rabbits; assay: Extended three-month toxicity study in rabbits; assay type: in vivo; details: doses 1/100 to 1/40 LD50
Method: (§3) The extended toxicity studies were carried out for a three-month period in rabbits and rats. Doses of from 1/100 to 1/40 LD50 were administered in the case of rabbits, and of from 1/150 to 1/50 LD50 in the case of rats. It should be noted that the highest doses were also the maximum tolerance doses during 12 weeks.

[18] = test system: rats; assay: Extended three-month toxicity study in rats; assay type: in vivo; details: doses 1/150 to 1/50 LD50
Method: as §3

[19] = test system: peripheral blood; assay: Extended toxicity: peripheral blood and clotting; assay type: in vivo, rabbits and rats
Method: as §3

[20] = test system: lymphatic system; assay: Extended toxicity: lymphatic system; assay type: in vivo, rabbits and rats; details: three-month study
Method: as §3

[21] = test system: liver; parameters: species or system rabbits and rats; details: in vivo
Method: as §3
By prolonged exposition, the influence of the preparation C-829 on the functions of the parenchymateous organs (liver, kidneys) was investigated. […] Only the thymol turbidity test resulted as a positive one, using the highest dosage of the preparation. But it should be kept in mind, that this test is not too exact.

[22] = test system: kidneys; parameters: species or system rabbits and rats; details: in vivo
Method: as §3

[23] = Local irritation by aqueous solution; assay type: in vivo

In the case of `CC(CN(C)C)Nc1c2ccccc2nc2cccc([N+](=O)[O-])c12.Cl.Cl` (stereo not drawn) [Example C-829, 1-nitro-9-(2-dimethylamino-1-methylethylamino)-acridine dihydrochloride], the “dose dependence of inhibition of Sa-180 growth” value [1] is reported as “dependent upon the dose”, the LD50 [2] is reported as 21 mg/kg and the “maximum tolerance dose (MTD), lower than LD50 by” value [3] is reported as roughly 20%. The LD50 [4] was 13 mg/kg, the “maximum tolerance dose (MTD), lower than LD50 by” value [5] was “about 30%” and the LD50 [6] was roughly 100 mg/kg. The “MTD by oral administration, lower than the sharp lethal dose by” value [7] was 53-66%, the “period over which animals die” value ([8]; in vivo) was “up to 10 days” and the “relative toxicity among the derivatives of acridine” value ([8]; in vivo) was “relatively lower toxicity”. The “toxic signs at death” value ([8]; regardless of the way of administration, dihydrochloride) was “intensified symptoms of the alimentary canal; also recorded: A sharp intestinal obstruction of the paralytic type occurs”, the “ECG intervals: PQ and QRS sections” value ([9]; higher doses, intravenously) was “prolonging the PQ section and in widening the QRS section” and the “blood pressure and conductivity disturbances” value ([9]; higher doses, intravenously) was “intensified hypotension, induced some disturbances characteristic enough of the acridine compounds both in the atrio-ventricular and intraventricular conductivity”. The electrocardiographic changes ([9]; initially, intravenously, doses increasing to 5 mg/kg) was “initially was not accompanied by any electrocardiographic changes”, the “effect on blood pressure” value ([9]; intravenously, doses increasing to 5 mg/kg, rabbits, cats) was “transient hypotension effect” and the “conductivity disturbance at lethal doses” value ([9]; lethal doses) was “total auriculoventricular dissociation”. The “character of circulatory effect” value ([9]; lower and moderate doses) was “transient character”, the “action on muscular coat of blood-vessels” value ([9]; rabbit, in vivo) was “tonic action on the muscular coat of the blood-vessels” and the “respiratory effect, initial phase” value ([10]; at the appearance of hypotension) was “instinctive respiratory excitation”. For the same compound, the “respiratory effect, massive doses” value ([10]; massive doses) was “depressive centrally for respiratory action, leading terminally to an apnoea”, the “change of circulatory action by atropinization” value [11] was “does not change the action of the preparation on the circulatory system” and the “action on smooth muscle” value [12] was “spasmolytic”. The “action on muscular coat of the small intestine” value [13] was “rather a contracting (enterospasmatic) one”, the “action on muscular coat of the small intestine” value [14] was “rather a contracting (enterospasmatic) one” and the “interaction with soporific (hypnotic) drugs” value ([15]; 10 LD50 (so in the source)) was “clear depressive component value”. For the same compound, the “action in the presence of cardiazol and strychnine” value ([15]; in vivo) was “complex and non-characteristic”, the “influence on spontaneous motility” value ([15]; in vivo) was “devoid, indeed, of an influence on the spontaneous motility of animals” and the effect on testicles ([16]; 1/50 LD50, 14 days) was “some retrograde microscopical metaplasia within the germinal epithelium of spermatic tubules of the testicles, leading to a disorder in the spermatogenesis”. The “effect on females fructified and newborn animals per brood” value ([16]; 1/50 LD50, 14 days prior to connexion) was “reduced the amount of fructified females, as well as diminished the number of newborn animals in broods”, the effect on ovary ([16]; 14 days) was “no observed pathological alteration in the ovary” and the “development of the foetus and newborn animals” value ([16]; 14 days prior to connexion) was “no macroscopic disorders of development of the foetus and newborn animals”. The “maximum tolerance dose during 12 weeks (highest dose)” value [17] was 1/40, the “maximum tolerance dose during 12 weeks (highest dose)” value [18] was 1/50 and the “influence on the thrombocyte system” value ([19]; preliminary investigations) was “did not show the influence of the preparation on the thrombocyte system”. The “picture of the peripheral blood (leukocytic, erythrocytic, hemoglobin levels)” value ([19]; three-month study) was “did not change the picture of the peripheral blood”, the “blood clotting (coagulation) time” value ([19]; three-month study, not correlated with dosage) was “prolonged the blood clotting (coagulation) time” and the “lymphatic system: proliferous centers and small lymphocytes” value [20] was “The structure of the proliferous centers became imperceptible, and also the amount of small lymphocytes diminished”. The “lymphatic system: rete elements” value [20] was “hypertrophy of rete elements”, the “alterations in the lymphatic system” value ([20]; especially mesenteric lymph nodes) was “very discretely marked involutional alterations” and the “liver function (transaminase AlAt, AspAt, acidic and alkaline phosphatase in serum)” value [21] was “It could not be determined, that it could influence the functions of the liver”. For the same compound, the liver histology [21] was “some weak (hardly perceptible) traits of the parenchymatous degeneration of glandular cells”, the thymol turbidity test [21] was “positive” and the “endogenous creatinine level in the serum” value [22] was “remained unchanged”. The glomerular filterability [22] was “maintained within standard limits”, the kidney histology [22] was “some focal parenchymatous degeneration character in renal tubules” and the “urine: pathological components and specific weight” value [22] was “neither induced any appearance of pathological components in urine, nor changed its specific weight”. For the same compound, the “local action of aqueous solution” value ([23]; 0.05-1% aqueous solution) was “locally irritating action”, the “local action at higher concentrations” value ([23]; higher concentrations, aqueous solution) was “narcotizing effect” and the “local irritation with phosphate buffer as solvent” value ([23]; phosphate buffer solution of Sorensen at pH 7) was “partially alleviated”.
